Experimental data as given in paper PMC5859250, “Contribution of transformation products towards the total herbicide toxicity to tropical marine organisms” (Scientific Reports, 2018).

Columns and labels:
[1] = tested on: prawn (Penaeus monodon) larvae; experiment: Prawn larvae assay, metamorphosis of nauplii into protozoea (24 h static); type: in vivo
Description: The giant tiger prawn (Penaeus monodon) can be found throughout the tropical Indo-Pacific region and can be obtained from aquaculture facilities and has a well-described life cycle. The aim of the larval prawn assay was to determine whether the herbicides and transformation products inhibit early naupliar development. Prawn eggs hatch into their first larval stage (nauplii), typically 12–15 h after spawning. During development the nauplii are lecithotrophic, and over the course of the next 36 h, nauplii pass through 6 sub-stages before metamorphosing into protozoae[67],[68].
Freshly hatched nauplii were harvested by light attraction over 30 min, and washed and aerated for 10 min with seawater, and transported to AIMS in Townsville, Queensland. […] The toxicity assays were performed in incubator shakers (set to 30 °C) under very low light and with gentle shaking to prevent individuals adhering to the side of experimental containers.
The larval stock was gently concentrated via reverse-gravity filtration to a higher density before dispensing 8–10 individuals per 20 ml glass scintillation vials. Additional positive control treatments in the form of 4 concentrations of copper II chloride solution (2 to 900 µg l^−1 Cu), were included for test validation. The static assay was terminated after 24 h and 10% seawater formalin was added as a preservative for later microscopy. Metamorphosis was considered successful when nauplii had developed into protozoea.
The model was constrained by applying a lower limit of 0% inhibition and all curves were tested for normality of the residuals and a replicate test was applied to assess the goodness of fit[36]. The probability that ICX values generated by the logistic curves were statistically different between parent and aged herbicide solutions was tested by applying the F test in Graph Pad Prism v6. ICXs were considered different when p < 0.05. Where inhibition data could not be fitted to logistic curves, one-way analysis of variance (ANOVA) was performed to identify treatments which caused significant (p < 0.05) inhibition comparison with control treatments (NCSS v9, Utah, USA). The larval prawn experimental data was arcsine square root transformed prior to statistical analysis.

[2] = Herbicide degradation in outdoor tanks with coastal seawater and sediment (330 d); type: physicochemical; settings: day 330, in tank of the parent herbicide, measured or estimated
Excerpt: Photosystem II herbicides/transformation product solutions were produced by adding herbicides to seawater within separate 120 l outdoor fibreglass tanks, in the presence of natural coastal sediments (further details can be found in Mercurio 2016)[36]. […] The tanks used were previously described in Mercurio et al.[8], with treatment water being partially shaded (70%) and exposed to a maximum of 700 µmol photons m^−2s^−1 over the course of the experiment. The application of a natural diurnal light regime and coastal sediment were previously shown to increase the rates of PSII herbicide degradation and represent more natural conditions than those used in standard degradation tests[8],[36]. Evaporation was minimised with loose-fitting clear acrylic lids and the water continuously circulated using Turbelle Nanostream pumps. Prior to every sampling period evaporation losses were replenished with equal volumes of MilliQ water. The average temperature was 25.7 °C with a range of 15.6–36.6 °C over the course of the study. Unfiltered coastal seawater and sediments were collected from the intertidal zone adjacent to the Australian Institute of Marine Science (19°16′S, 147°03′E), Cape Cleveland, QLD. The sediments were prepared one week prior to use by sieving (>2 mm removed) and thorough mixing. Each tank contained 5 kg of sediment. Physical and chemical information on the seawater and sediments used the treatments can be found in SOM Table 1.
The 20 tanks included replicates for control seawater (n = 4) and the PSII herbicides diuron (n = 4), atrazine (n = 3), simazine (n = 3), hexazinone (n = 3), and ametryn (n = 3). Herbicide treatments and replicates were randomized among tanks. The herbicides were purchased from Sigma Aldrich (>95% purity) and were introduced at ~1 mg l^−1 to enable direct chemical and toxicological testing of the herbicide transformation product mixtures without additional concentration steps. […] The same concentration was used in the controls. Sample collection, internal standard addition, and analytical techniques (HPLC-MS/MS using an AB/Sciex API5500Q mass spectrometer equipped with an electrospray interface and coupled to a Shimadzu Prominence HPLC system) were as previously reported[7],[36]. […] Individual replicates were analysed using HPLC/TripleTOF mass spectrometry for possible transformation products as described in Mercurio 2016[36]. Briefly, 0.2 µm-filtered samples were directly injected into an ABSciex API5600+ Triple TOF mass spectrometer (ABSciex, Concord, Ontario, Canada) equipped with an electrospray (TurboV) interface coupled to a Shimadzu Nexera HPLC system (Shimadzu Corp., Kyoto, Japan). Separation was achieved using a 4 micron 50 × 2.0 mm Phenomenex Synergi Fusion RP column (Phenomenex, Torrance, CA) run at 45 °C, and a flow rate of 0.4 mL min^−1 with a linear gradient starting at 8% B for 0.5 minutes, ramped to 100% B in 8 minutes then held at 100% for 2.0 minutes followed by equilibration at 8% B for 2.5 minutes (A = 1% methanol in HPLC grade water, B = 95% methanol in HPLC grade water, both containing 0.1% acetic acid). The mass spectrometer was operated in positive ion SWATH mode. Briefly this mode comprises a TOF scan of 50 millisecond duration followed by small segments of the mass range being transmitted through the quadrupole, fragmented in the collision cell and full TOF mass spectra taken of the transformation products. Data from these experiments was examined using the Masterview software (ABSciex).
Potential transformation products identified using TOF mass spectrometry and other potential transformation products identified from literature were then re-examined by HPLC/ triple quadrupole mass spectrometry using multiple reaction monitoring. Product ions used were as identified from QTOF data or from literature references and parameters such as collision energy optimised by repeated injections of samples for compounds detected. […]

[3] = Penaeus monodon (giant tiger prawn), in vivo, 24 h
[4] = 24 h, vs solvent control, ANOVA p < 0.05, aged solutions as concentration of parent herbicide

Compound | LOEC, prawn larval metamorphosis [1, 3] [µg/L] | Effect on prawn larval metamorphosis (in words) ([1]; in vivo) | Transformation product concentration [2] [µg/L] | Transformation product concentration ([2]; listed as Desisopropyl Atrazine) [µg/L] | LOEC, prawn larval metamorphosis [1, 4] [µg/L] | NOEC, prawn larval metamorphosis [1, 4] [µg/L]
CC(C)Nc1nc(N)nc(Cl)n1 [DEA, desethylatrazine] | 3.8 | significantly inhibiting metamorphosis at all concentrations tested | 36 | – | – | –
CCNc1nc(N)nc(Cl)n1 [DIA, desisopropylatrazine] | 3.5 | significantly inhibiting metamorphosis at all concentrations tested | – | 5.1 | – | –
Nc1ccc(Cl)c(Cl)c1 [3,4-DCA, 3,4-dichloroaniline] | – | – | 2.1 | – | 188 | 54
